Target: T1, purified human HDAC6 (Homo sapiens, UniProt Q9UBN7)
T1 construct: purchased BPS Bioscience 5006
T1 sequence (Q9UBN7 1-1215): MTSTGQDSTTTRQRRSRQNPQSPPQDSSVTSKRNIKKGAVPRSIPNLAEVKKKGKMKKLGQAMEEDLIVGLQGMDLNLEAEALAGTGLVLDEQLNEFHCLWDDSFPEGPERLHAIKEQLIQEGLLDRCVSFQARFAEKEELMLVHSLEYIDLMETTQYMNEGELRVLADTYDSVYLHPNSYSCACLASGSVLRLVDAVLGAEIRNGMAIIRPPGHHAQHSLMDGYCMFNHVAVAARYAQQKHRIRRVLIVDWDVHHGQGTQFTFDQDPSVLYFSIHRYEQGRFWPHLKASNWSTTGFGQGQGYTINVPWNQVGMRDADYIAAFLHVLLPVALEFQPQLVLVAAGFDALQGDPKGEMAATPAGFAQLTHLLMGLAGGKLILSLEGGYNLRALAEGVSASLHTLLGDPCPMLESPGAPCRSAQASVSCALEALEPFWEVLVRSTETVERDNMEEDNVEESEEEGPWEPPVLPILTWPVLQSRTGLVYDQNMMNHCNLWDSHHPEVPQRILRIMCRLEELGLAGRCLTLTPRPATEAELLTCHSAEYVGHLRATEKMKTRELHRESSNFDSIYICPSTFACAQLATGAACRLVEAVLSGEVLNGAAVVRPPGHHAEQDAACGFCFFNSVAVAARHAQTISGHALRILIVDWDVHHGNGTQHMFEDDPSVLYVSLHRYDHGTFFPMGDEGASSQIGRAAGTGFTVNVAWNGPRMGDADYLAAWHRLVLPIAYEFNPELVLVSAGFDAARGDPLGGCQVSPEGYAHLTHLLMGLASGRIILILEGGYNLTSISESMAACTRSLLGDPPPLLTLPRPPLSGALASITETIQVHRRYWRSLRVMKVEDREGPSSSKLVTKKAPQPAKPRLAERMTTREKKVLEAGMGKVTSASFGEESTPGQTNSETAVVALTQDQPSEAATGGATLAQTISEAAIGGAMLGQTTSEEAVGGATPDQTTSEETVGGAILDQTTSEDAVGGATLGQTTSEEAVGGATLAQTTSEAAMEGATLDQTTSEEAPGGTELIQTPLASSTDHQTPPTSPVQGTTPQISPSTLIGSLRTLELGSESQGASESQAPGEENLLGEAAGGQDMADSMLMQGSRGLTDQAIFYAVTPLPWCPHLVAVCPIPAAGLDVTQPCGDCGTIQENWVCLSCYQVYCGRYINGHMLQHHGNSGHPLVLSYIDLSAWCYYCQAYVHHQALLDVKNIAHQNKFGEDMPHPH
Assay: HDAC6 Enzyme Assay
Type: biochemical
Settings: compound concentration 0.37 μM, read-out: Percent Inhibition
Method in brief: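 Readout is AMC fluorescence (Ex 340 nm, Em 460 nm) after trypsin cleavage of the deacetylated Ac-Arg-Gly-Lys(Ac)-AMC product. Reaction: purified human HDAC6, compound or vehicle, 1 hour, 30° C, quenched by trichostatin A. Single-concentration percent inhibition or IC50 calculated versus DMSO-treated samples.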

Row | inhibition at 0.37 µM | SMILES
1 | 89.6% | O=C(NO)c1ccc2ncn(CCc3cccc(-c4cccc(C(=O)NC5CC5)c4)c3)c(=O)c2c1 [Compound I-291, 3-(2-{3′-[(cyclopropylamino)carbonyl]biphenyl-3-yl}ethyl)-N-hydroxy-4-oxo-3,4-dihydroquinazoline-6-carboxamide]
2 | 87% | O=C(NO)c1ccc2ccn(-c3ccccc3F)c(=O)c2c1 [Compound I-346, 2-(2-fluorophenyl)-N-hydroxy-1-oxo-1,2-dihydroisoquinoline-7-carboxamide]
3 | 81.9% | O=C(NO)c1ccc2ncn(CCc3cccc(-c4cc(Cl)cc(Cl)c4)c3)c(=O)c2c1 [Compound I-345, 3-[2-(3′,5′-dichlorobiphenyl-3-yl)ethyl]-N-hydroxy-4-oxo-3,4-dihydroquinazoline-6-carboxamide]
4 | 85.7% | CS(=O)(=O)c1cccc(CCn2cnc3ccc(C(=O)NO)cc3c2=O)c1 [Compound I-216, N-hydroxy-3-{2-[3-(methylsulfonyl)phenyl]ethyl}-4-oxo-3,4-dihydroquinazoline-6-carboxamide]
5 | 91.2% | O=C(NO)c1ccc2ccn(CCc3cccc(C4CCNCC4)c3)c(=O)c2c1 [Compound I-324, N-hydroxy-1-oxo-2-[2-(3-piperidin-4-ylphenyl)ethyl]-1,2-dihydroisoquinoline-7-carboxamide]
6 | 92.2% | O=C(NO)c1ccc2ncn(Cc3cccc(-c4c(Cl)cccc4Cl)c3)c(=O)c2c1 [Compound I-23, 3-[(2′,6′-dichlorobiphenyl-3-yl)methyl]-N-hydroxy-4-oxo-3,4-dihydroquinazoline-6-carboxamide]
7 | 94.4% | O=C(NO)c1ccc2ncn(Cc3cccc(-c4cccc(C(F)(F)F)c4)c3)c(=O)c2c1 [Compound I-46, N-hydroxy-4-oxo-3-{[3′-(trifluoromethyl)biphenyl-3-yl]methyl}-3,4-dihydroquinazoline-6-carboxamide]
8 | 75.4% | NCCCn1ccc2ccc(C(=O)NO)cc2c1=O [Compound I-173, 2-(3-aminopropyl)-N-hydroxy-1-oxo-1,2-dihydroisoquinoline-7-carboxamide]
9 | 73.9% | Cc1cn(Cc2ccccc2)c(=O)c2cc(C(=O)NO)ccc12 [Compound I-400, 2-benzyl-N-hydroxy-4-methyl-1-oxo-1,2-dihydroisoquinoline-7-carboxamide]
10 | 83.6% | CC(C)c1ccc(-c2cccc(Cn3cnc4ccc(C(=O)NO)cc4c3=O)c2)cc1 [Compound I-32, N-hydroxy-3-[(4′-isopropylbiphenyl-3-yl)methyl]-4-oxo-3,4-dihydroquinazoline-6-carboxamide]
11 | 91.7% | CC(C)(C)C(=O)NCCCn1ccc2ccc(C(=O)NO)cc2c1=O [Compound I-8, 2-{3-[(2,2-dimethylpropanoyl)amino]propyl}-N-hydroxy-1-oxo-1,2-dihydroisoquinoline-7-carboxamide]
12 | 92.7% | O=C(NO)c1ccc2ncn(Cc3cccc(-c4ccc(F)cc4)c3)c(=O)c2c1 [Compound I-181, 3-[(4′-fluorobiphenyl-3-yl)methyl]-N-hydroxy-4-oxo-3,4-dihydroquinazoline-6-carboxamide]
13 | 90.8% | COc1cccc(-c2cccc(Cn3cnc4ccc(C(=O)NO)cc4c3=O)c2)c1 [Compound I-281, N-hydroxy-3-[(3′-methoxybiphenyl-3-yl)methyl]-4-oxo-3,4-dihydroquinazoline-6-carboxamide]
14 | 85.5% | O=C(NO)c1ccc2ncn(Cc3cccc(-c4ccccc4Cl)c3)c(=O)c2c1 [Compound I-28, 3-[(2′-chlorobiphenyl-3-yl)methyl]-N-hydroxy-4-oxo-3,4-dihydroquinazoline-6-carboxamide]
15 | 84.5% | O=C(NO)c1ccc2c(=O)n(Cc3ccc(C(F)(F)F)cc3)c(CCc3ccccc3)nc2c1 [Compound I-39, N-hydroxy-4-oxo-2-(2-phenylethyl)-3-[4-(trifluoromethyl)benzyl]-3,4-dihydroquinazoline-7-carboxamide]

Same assay, conditions: compound concentration 0.412 μM, read-out: Percent Inhibition

Row | inhibition at 0.412 µM | SMILES
16 | 89.5% | O=C(NO)c1ccc2c(=O)[nH]c(COc3ccc4c(c3)OCO4)nc2c1 [Compound I-66, 2-[(1,3-benzodioxol-5-yloxy)methyl]-N-hydroxy-4-oxo-3,4-dihydroquinazoline-7-carboxamide]
17 | 95.8% | O=C(NO)c1ccc2c(=O)n(Cc3cccc(C(F)(F)F)c3)cnc2c1 [Compound I-16, N-hydroxy-4-oxo-3-[3-(trifluoromethyl)benzyl]-3,4-dihydroquinazoline-7-carboxamide]
18 | 82.5% | O=C(NO)c1ccc2ncn(CCc3ccccn3)c(=O)c2c1 [Compound I-104, N-hydroxy-4-oxo-3-(2-pyridin-2-ylethyl)-3,4-dihydroquinazoline-6-carboxamide]
19 | 97% | O=C(NO)c1ccc2ncn(CCOc3ccccc3)c(=O)c2c1 [Compound I-180, N-hydroxy-4-oxo-3-(2-phenoxyethyl)-3,4-dihydroquinazoline-6-carboxamide]
20 | 88.8% | O=C(NO)c1ccc2ccn(C3c4ccccc4-c4ccccc43)c(=O)c2c1 [Compound I-201, 2-(9H-fluoren-9-yl)-N-hydroxy-1-oxo-1,2-dihydroisoquinoline-7-carboxamide]
21 | 95.5% | O=C(NO)c1ccc2ccn(CCOc3cccc(C(F)(F)F)c3)c(=O)c2c1 [Compound I-282, N-hydroxy-1-oxo-2-{2-[3-(trifluoromethyl)phenoxy]ethyl}-1,2-dihydroisoquinoline-7-carboxamide]
22 | 95.8% | O=C(NO)c1ccc2ccn(Cc3cccc(Cl)c3)c(=O)c2c1 [Compound I-206, 2-(3-chlorobenzyl)-N-hydroxy-1-oxo-1,2-dihydroisoquinoline-7-carboxamide]
23 | 94.3% | O=C(NO)c1ccc2ccn(Cc3c(F)cc(F)cc3F)c(=O)c2c1 [Compound I-102, N-hydroxy-1-oxo-2-(2,4,6-trifluorobenzyl)-1,2-dihydroisoquinoline-7-carboxamide]
24 | 76% | O=C(NO)c1ccc2c(=O)[nH]c(COc3cccc(C(F)(F)F)c3)nc2c1 [Compound I-110, N-hydroxy-4-oxo-2-{[3-(trifluoromethyl)phenoxy]methyl}-3,4-dihydroquinazoline-7-carboxamide]
25 | 32.7% | CC(C)Nc1nc2cc(C(=O)NO)ccc2c(=O)n1C [Compound I-15, N-hydroxy-2-(isopropylamino)-3-methyl-4-oxo-3,4-dihydroquinazoline-7-carboxamide]
26 | 44.2% | Cn1c(NCc2ccncc2)nc2cc(C(=O)NO)ccc2c1=O [Compound I-47, N-hydroxy-3-methyl-4-oxo-2-[(pyridin-4-ylmethyl)amino]-3,4-dihydroquinazoline-7-carboxamide]
27 | 19.6% | O=C(NO)c1ccc2c(=O)[nH]c(=O)[nH]c2c1 [Compound I-155, N-hydroxy-2,4-dioxo-1,2,3,4-tetrahydroquinazoline-7-carboxamide]
28 | 94.4% | O=C(NO)c1ccc2ccn(CCCOc3ccc4c(c3)CCC4)c(=O)c2c1 [Compound I-42, 2-[3-(2,3-dihydro-1H-inden-5-yloxy)propyl]-N-hydroxy-1-oxo-1,2-dihydroisoquinoline-7-carboxamide]
29 | 60.5% | CCN(CC)Cc1nc2cc(C(=O)NO)ccc2c(=O)[nH]1 [Compound I-84, 2-[(diethylamino)methyl]-N-hydroxy-4-oxo-3,4-dihydroquinazoline-7-carboxamide]
30 | 94.9% | CC(C)CCCn1cnc2cc(C(=O)NO)ccc2c1=O [Compound I-275, N-hydroxy-3-(4-methylpentyl)-4-oxo-3,4-dihydroquinazoline-7-carboxamide]
31 | 80.4% | CC(C)(C)OC(=O)N1CCC(CCn2ccc3ccc(C(=O)NO)cc3c2=O)CC1 [Compound I-58, tert-butyl 4-{2-[7-[(hydroxyamino)carbonyl]-1-oxoisoquinolin-2(1H)-yl]ethyl}piperidine-1-carboxylate]

From US8765773B2, “Substituted hydroxamic acids and uses thereof” (Millennium Pharmaceuticals, Inc., priority 2010, dated 2014)
